Ki data for 28 molecules are collected here from ChEMBL document CHEMBL1134790, “Design, synthesis, and evaluation of novel A2A adenosine receptor agonists” (J Med Chem, 2001).

Structures are written as SMILES.

Experiment [1] has as its target Adenosine receptor A2a (Rattus norvegicus, UniProt P30543). In words: biochemical.
Description: Binding affinity towards adenosine A2A receptor in rat brain striatum
For experiment [2], the target named is T1, Adenosine receptor A1 (Rattus norvegicus, UniProt P25099).
T1 sequence (P25099 whole entry): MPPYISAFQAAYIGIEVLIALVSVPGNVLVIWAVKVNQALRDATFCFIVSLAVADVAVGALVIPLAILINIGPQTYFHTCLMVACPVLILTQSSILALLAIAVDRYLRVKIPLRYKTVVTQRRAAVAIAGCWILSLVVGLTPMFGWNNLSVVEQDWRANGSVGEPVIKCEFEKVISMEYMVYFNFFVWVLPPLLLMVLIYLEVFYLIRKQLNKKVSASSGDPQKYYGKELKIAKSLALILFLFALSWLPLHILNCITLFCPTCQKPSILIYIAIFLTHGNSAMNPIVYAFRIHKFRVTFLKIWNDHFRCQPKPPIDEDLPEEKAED
In words: biochemical.
Description: Binding affinity towards adenosine A1 receptor in rat brain cortex

Chain of Adenosine receptor A2a (P30543 whole entry): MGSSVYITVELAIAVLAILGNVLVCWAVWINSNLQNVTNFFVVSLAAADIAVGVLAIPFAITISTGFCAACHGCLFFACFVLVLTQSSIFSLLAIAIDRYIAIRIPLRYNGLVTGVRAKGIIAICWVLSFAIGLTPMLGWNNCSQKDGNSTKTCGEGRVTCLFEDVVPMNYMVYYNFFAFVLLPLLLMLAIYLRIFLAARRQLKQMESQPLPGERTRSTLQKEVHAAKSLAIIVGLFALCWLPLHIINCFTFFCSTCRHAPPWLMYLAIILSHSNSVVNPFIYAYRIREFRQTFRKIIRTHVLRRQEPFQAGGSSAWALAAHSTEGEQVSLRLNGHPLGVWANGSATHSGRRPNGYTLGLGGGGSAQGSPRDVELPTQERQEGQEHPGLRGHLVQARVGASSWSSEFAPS

Regarding `Nc1nc(C#CCCc2ccccc2)nc2c1ncn2[C@@H]1O[C@H](CO)[C@@H](O)[C@H]1O`, the affinity in experiment [1], expressed as Ki, was 37 nM.
Same read-out and setting: in the case of `Nc1nc(C#CC2CCCC2)nc2c1ncn2[C@@H]1O[C@H](CO)[C@@H](O)[C@H]1O` it was 12 nM; in that of `CCCCCC#Cc1nc(N)c2ncn([C@@H]3O[C@H](CO)[C@@H](O)[C@H]3O)c2n1`, 5.4 nM.
With `Nc1nc(OCCc2ccccc2)nc2c1ncn2[C@@H]1O[C@H](CO)[C@@H](O)[C@H]1O`, the results for the Ki in experiment [1] and in experiment [2] were 17 nM and 130 nM, respectively.
Consider `Nc1nc(C#Cc2ccccc2)nc2c1ncn2[C@@H]1O[C@H](CO)[C@@H](O)[C@H]1O`, for which the Ki in experiment [1] amounted to 109 nM.
Take `Nc1nc(OCCc2ccc(F)cc2)nc2c1ncn2[C@@H]1O[C@H](CO)[C@@H](O)[C@H]1O`: the Ki came out at 97 nM in experiment [1] and 500 nM in experiment [2].
In turn, `CCNC(=O)[C@H]1OC(n2cnc3c(N)nc(NCCc4ccc(Cl)cc4)nc32)[C@H](O)[C@@H]1O` (stereo not given in full) returned a Ki in experiment [1] of 7.5 nM.
As for `C#Cc1nc(N)c2ncn(C3O[C@H](CO)[C@@H](O)[C@H]3O)c2n1` (stereo not given in full), the Ki in experiment [1] amounted to 37.6 nM.
In the case of `CCCOc1nc(N)c2ncn(C3O[C@H](CO)[C@@H](O)[C@H]3O)c2n1` (stereo not given in full), the Ki in experiment [1] was 360 nM; in experiment [2] it was 1200 nM.
`CCCc1nc(N)c2ncn(C3O[C@H](CO)[C@@H](O)[C@H]3O)c2n1` (stereo not given in full): the Ki is 7.5 nM in experiment [1] and 154 nM in experiment [2].
For `CCC(CC)CCOc1nc(N)c2ncn(C3O[C@H](CO)[C@@H](O)[C@H]3O)c2n1` (stereo not given in full), in that order: 530 nM and 1490 nM.
`Nc1nc(C#CCCC2CCCCC2)nc2c1ncn2C1O[C@H](CO)[C@@H](O)[C@H]1O` (stereo not given in full): in experiment [1], the affinity corresponds to a Ki of 26 nM.
In the case of `COCc1nc(N)c2ncn(C3O[C@H](CO)[C@@H](O)[C@H]3O)c2n1` (stereo not given in full), the results for the Ki in experiment [1] and in experiment [2] were 88.1 nM and 38.1 nM, respectively.
The like results for `Cc1ccc(CCOc2nc(N)c3ncn(C4O[C@H](CO)[C@@H](O)[C@H]4O)c3n2)cc1` (stereo not given in full) were, in that order, 11 nM and 49 nM.
For `COc1cccc(CCOc2nc(N)c3ncn(C4O[C@H](CO)[C@@H](O)[C@H]4O)c3n2)c1` (stereo not given in full), in that order: 320 nM and 760 nM.
Molecule `CCNC(=O)[C@H]1OC(n2cnc3c(N)nc(NCCc4ccc(OCC(=O)O)cc4)nc32)[C@H](O)[C@@H]1O` (stereo not given in full) returned a Ki in experiment [1] of 42 nM.
For the molecule `CC(C)CCCOc1nc(N)c2ncn(C3O[C@H](CO)[C@@H](O)[C@H]3O)c2n1` (stereo not given in full), the values for the Ki in experiment [1] and in experiment [2] were 130 nM and 2100 nM, respectively.
The like results for `CCNC(=O)[C@H]1OC(n2cnc3c(N)nc(C#CNCCc4ccccc4)nc32)[C@H](O)[C@@H]1O` (stereo not given in full) were, in that order, 9.7 nM and 473 nM.
For the molecule `Nc1nc(C#CC2CCCCC2)nc2c1ncn2C1O[C@H](CO)[C@@H](O)[C@H]1O` (stereo not given in full), the Ki in experiment [1] was found to be 10 nM.
The same measure, in the same setting: under `CCCOCc1nc(N)c2ncn(C3O[C@H](CO)[C@@H](O)[C@H]3O)c2n1` (stereo not given in full) stands 10.6 nM.
Consider `CCCOCCc1nc(N)c2ncn(C3O[C@H](CO)[C@@H](O)[C@H]3O)c2n1` (stereo not given in full), for which the Ki is 10.2 nM in experiment [1] and 128 nM in experiment [2].
For `COc1ccc(CCOc2nc(N)c3ncn(C4O[C@H](CO)[C@@H](O)[C@H]4O)c3n2)cc1` (stereo not given in full), in that order: 32 nM and 480 nM.
In experiment [1], `Nc1nc(C#CCCC2CCCC2)nc2c1ncn2C1O[C@H](CO)[C@@H](O)[C@H]1O` (stereo not given in full) registered a Ki of 3.4 nM.
As for `Nc1nc(OCCCCCc2ccccc2)nc2c1ncn2C1O[C@H](CO)[C@@H](O)[C@H]1O` (stereo not given in full), the results for the Ki in experiment [1] and in experiment [2] were 53 nM and 960 nM, respectively.
Turning to `CCC(CC)COc1nc(N)c2ncn(C3O[C@H](CO)[C@@H](O)[C@H]3O)c2n1` (stereo not given in full), the Ki is 4600 nM in experiment [1] and 2700 nM in experiment [2].
For `Nc1nc(OCCCC2CCCCC2)nc2c1ncn2C1O[C@H](CO)[C@@H](O)[C@H]1O` (stereo not given in full), in that order: 22 nM and 2800 nM.
Turning to `Cc1cccc(CCOc2nc(N)c3ncn(C4O[C@H](CO)[C@@H](O)[C@H]4O)c3n2)c1` (stereo not given in full), the Ki was found to be 61 nM in experiment [1] and 140 nM in experiment [2].
The like results for `Nc1nc(OCCC2CCCC2)nc2c1ncn2C1O[C@H](CO)[C@@H](O)[C@H]1O` (stereo not given in full) were, in that order, 120 nM and 1600 nM.
